Consider 36 molecules from ChEMBL document CHEMBL1201862, “PubChem BioAssay data set” (2004).

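These data come from cells grown in 96-well plates and exposed to compound for 48 hours at five concentrations. At the GI50, growth is halved.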 The source made the active and inactive calls. Rule as the data show it: active = GI50 up to about 1.1 µM and inactive = higher.

Among the test systems are HOP-18; KM-20L2; DLD-1; DMS-273; BT-549; T47D; DMS-114; LXFL 529; RXF 631.
Assay in all cases: DTP human tumour cell line panel, 48 h

On to `CC(NC(=O)C(C)NC(=O)C(N)CCP(C)(=O)O)C(=O)O` (stereo unspecified), for which the GI50 in the test with HOP-18, with KM-20L2, with DLD-1 and in the test with DMS-273 was > 100 µM (inactive) in each case.

Consider `COc1ccc2c3c1OC1C(F)C=CC4(O)C(C2)NCCC314` (stereo unspecified), for which the GI50 with BT-549 is 1.93 µM (inactive); in the test with T47D, 0.753 µM (active).

Turning to `OC(c1cc(C(F)(F)F)nc2c(Cl)cc(Cl)cc12)C1CCCCN1` (stereo unspecified), the GI50 is 14.5 µM (inactive) with BT-549 and 5.65 µM (inactive) in the test with T47D.

In the case of `C[C@]12CC[C@@H]3c4ccc(O)cc4CC[C@H]3[C@@H]1C/C(=C\c1ccncc1)C2=O`, the GI50 with T47D was 27.2 µM (inactive).

In the case of `CCOC(=O)CCSS(=O)(=O)C(F)(F)F`, the GI50 in the test with BT-549 and in the test on T47D was > 100 µM (inactive) each time.

`COC(=O)C(C(=O)OC)C1CC(=O)c2c(Br)sc(Br)c21` (stereo unspecified): the GI50 was 18.4 µM (inactive) with BT-549 and 28.6 µM (inactive) with T47D.

Turning to `COc1ccccc1Cc1nc(-c2ccccc2)nn(C2OC(COC(C)=O)C(OC(C)=O)C(OC(C)=O)C2OC(C)=O)c1=S` (stereo unspecified), the GI50 was 27.9 µM (inactive) in the test with HOP-18; 27.6 µM (inactive) in the test with DMS-114; 29.1 µM (inactive) with KM-20L2; > 31.3 µM (inactive) in the test with DLD-1; > 39.2 µM (inactive) with DMS-273.

Regarding `CC(C)(C)N1C(C(=O)c2ccccc2)C1c1ccccc1` (stereo unspecified), the GI50 in the test on LXFL 529, in the test with DLD-1, with DMS-273 and with RXF 631 was > 100 µM (inactive) in each case.

As to `COC(=O)c1cc2c(cc1CC(Cc1ccc3c(c1)CCC3)C(=O)OC)CCC2` (stereo unspecified), the GI50 with BT-549 was > 100 µM (inactive); with T47D it was 26.8 µM (inactive).

As for `O=C(O)c1cnc2c(ccc3ncc(C(=O)O)c(O)c32)c1O`, the GI50 in the test on BT-549 and with T47D was > 100 µM (inactive) in each case.

In the case of `Cc1nc2c(sc(=S)n2-c2ccccc2)c(=O)[nH]1`, the GI50 in the test with LXFL 529, with HOP-18 and in the test with DLD-1 was > 100 µM (inactive) in each case.

For `O=[N+]([O-])c1ccc(-c2nc3cc([N+](=O)[O-])ccc3[nH]2)cc1`, the figures for the GI50 in the test with BT-549 and with T47D were 31.2 µM (inactive) and 15.5 µM (inactive), respectively.

For `CC1(O)OC(=O)C2=C1CCC1C2CCC2(C)C(O)CCC12` (stereo unspecified), the GI50 in the test on BT-549 and in the test on T47D was > 100 µM (inactive) each time.

`c1c2c(cc(-n3nnc4c3CCCCCC4)c1-n1nnc3c1CCCCCC3)CCCCCC2`: the GI50 in the test with DMS-273 was 2.99 µM (inactive); in the test with RXF 631, 10.1 µM (inactive).

As to `CCCCCCCCC(O)c1ccc(/C=C\C(O)CCCC(=O)O)s1` (stereo unspecified), the GI50 in the test with LXFL 529, in the test on HOP-18, with DMS-114, with KM-20L2, in the test with DLD-1 and in the test on DMS-273 was > 100 µM (inactive) in each case.

Regarding `COC(=O)N/N=C(/CC1(O)C(=O)Nc2ccc([N+](=O)[O-])cc21)c1ccccc1` (stereo unspecified), the GI50 in the test with LXFL 529 was 36.8 µM (inactive); in the test on BT-549, 38.5 µM (inactive); with DMS-114 it was 41.9 µM (inactive); with KM-20L2, > 100 µM (inactive); in the test on T47D, 48.8 µM (inactive); in the test on DLD-1, 46.7 µM (inactive). Moreover, the GI50 with DMS-273 is 67.8 µM (inactive).

Regarding `CC1C(=O)C(C)C(c2cccs2)N(N=O)C1c1cccs1` (stereo unspecified), the GI50 in the test on HOP-18 was 11.4 µM (inactive); in the test on DMS-114, 95.1 µM (inactive); in the test with KM-20L2, > 100 µM (inactive); in the test with DLD-1, > 100 µM (inactive); with DMS-273, > 100 µM (inactive).

For the molecule `COc1ccccc1C1C(Cl)C(=O)N1n1cnc2ccccc2c1=O` (stereo unspecified), the GI50 in the test on LXFL 529 was > 100 µM (inactive); in the test with HOP-18, 39.6 µM (inactive); in the test with DMS-114, > 100 µM (inactive); with KM-20L2 it was > 100 µM (inactive); with DLD-1, > 100 µM (inactive); in the test with DMS-273, > 100 µM (inactive).

On to `COc1cc(C2C(C(=O)O)=C(COC(C)=O)Oc3cc4c(cc32)OCO4)cc(OC)c1OC` (stereo unspecified), for which the GI50 in the test with HOP-18, in the test on DMS-114, in the test on KM-20L2, with DMS-273 and in the test on RXF 631 was > 100 µM (inactive) each time.

For `O=C1CCCC(=O)N1CCc1c[nH]c2ccccc12`, the GI50 in the test with LXFL 529, in the test on DMS-114, in the test with KM-20L2, in the test on DLD-1, in the test with DMS-273 and with RXF 631 was > 100 µM (inactive) each time.

On to `Fc1ccccc1C1CC(C(c2ccccc2)c2ccccc2)=Nc2ccccc2S1` (stereo unspecified), for which the GI50 in the test with LXFL 529 is 4.23 µM (inactive); in the test on HOP-18 it was 16.2 µM (inactive); in the test on DMS-114 it was 6.85 µM (inactive); with KM-20L2, 6.53 µM (inactive); with DLD-1, 5.41 µM (inactive); with DMS-273, 4.76 µM (inactive). Further, the GI50 in the test on RXF 631 is 8.04 µM (inactive).

For the molecule `O=C(O)C1(C(O)c2ccccc2)SCCCS1` (stereo unspecified), the GI50 with BT-549 and in the test on T47D was > 10 µM (inactive) each time.

For `O=c1c(-c2ccc(O)cc2)coc2cc(O)cc(O)c12` [GENISTEIN], the GI50 with BT-549 was 88.3 µM (inactive); in the test with T47D it was > 100 µM (inactive).

As to `O=C1CC(=O)c2c(O)cc(O)c(c2O)-c2c(ccc(O)c2O)C2=CC(=O)c3c(O)cc(O)c(c3O2)-c2c1ccc(O)c2O.O=C1CC2(O)Oc3c1c(O)cc(O)c3-c1c(ccc(O)c1O)-c1cc(=O)c3c(O)cc(O)c(c3o1)-c1c2ccc(O)c1O`, the GI50 with BT-549 and in the test on T47D was > 50 µM (inactive) in each case.

Turning to `Cc1cc2c(cc1C)N1Cc3c(ccc(C)c3C)N(C2)C1.Cc1cc2c(cc1C)N1Cc3cc(C)c(C)cc3N(C2)C1`, the GI50 in the test with LXFL 529 is > 100 µM (inactive); in the test with HOP-18, > 100 µM (inactive); in the test on DMS-114, > 100 µM (inactive); with KM-20L2, 52 µM (inactive); in the test on DLD-1, > 100 µM (inactive); with DMS-273, > 100 µM (inactive).

As to `C/C(=N\Nc1nc2ccccc2[nH]1)c1cccc[n+]1[O-]`, the GI50 with BT-549 and in the test on T47D was > 100 µM (inactive) in each case.

For the molecule `Oc1ccc(-c2nc3cc(C(F)(F)F)ccc3s2)cc1`, the GI50 in the test with BT-549 was 15.1 µM (inactive).

As to `Cc1cc(C)c(S(=O)(=O)N(CCCCN)OCCCN)c(C)c1`, the GI50 in the test on BT-549 was 19.1 µM (inactive); with T47D it was 18.2 µM (inactive).

Take `CC(=O)OCC1OC(N2C(=O)NC(=O)C3C=C4CCCCC4=CC32)C(OC(C)=O)C1OC(C)=O` (stereo unspecified): the GI50 with BT-549 and with T47D was > 100 µM (inactive) in each case.

As to `c1ccc(C(NC2=NCCO2)C2CC2)cc1` (stereo unspecified), the GI50 in the test on T47D was > 100 µM (inactive).

With `Nc1nc(N)c2cc(Sc3ccc4nc(N)nc(N)c4c3)ccc2n1`, the GI50 in the test with BT-549 was > 100 µM (inactive); in the test with T47D, > 44.2 µM (inactive).

For the molecule `CC(=O)O[C@@H]1[C@H]2[C@@H](OC(=O)c3ccccc3)[C@@H](C)C[C@]2(O)[C@H](OC(C)=O)[C@@]2(C)[C@@H]3C[C@@](C)(OC(C)=O)C[C@@H](OC(C)=O)[C@@]3(OC(C)=O)C[C@@]12C`, the GI50 in the test with BT-549 and in the test with T47D was > 10 µM (inactive) throughout.

`CC(C)(C)[Si](C)(C)OCC1OC(n2cnc3c(NC(=O)c4ccccc4)ncnc32)CC1O` (stereo unspecified): in the test on T47D, the GI50 was 30.2 µM (inactive).

Turning to `O=NN1CCN=C1c1ccc([N+](=O)[O-])cc1`, the GI50 in the test with LXFL 529, in the test on KM-20L2, in the test on DLD-1 and with DMS-273 was > 100 µM (inactive) in each case.

Regarding `Clc1ccc(C(SCc2ccccc2)SCc2ccccc2)cc1`, in the test with T47D, the GI50 is > 10 µM (inactive).

Turning to `COc1cc(NC(C)CCCN)c2ncccc2c1` (stereo unspecified) [PRIMAQUINE PHOSPHATE], the GI50 in the test on LXFL 529 was 60.7 µM (inactive); in the test with BT-549 it was 41.1 µM (inactive); with HOP-18 it was > 36.1 µM (inactive); with DMS-114 it was 37.7 µM (inactive); with KM-20L2 it was 57.5 µM (inactive); in the test with T47D it was 16 µM (inactive). For the same molecule, the GI50 with DLD-1 was 76.6 µM (inactive); in the test with DMS-273 it was > 100 µM (inactive); in the test with RXF 631 it was > 91.2 µM (inactive).
